The structures appear in SMILES notation.

In series [1] the test system is FHIT−/− C57BL/6 mice in hypoxia. The series is described as follows: Hypoxia-induced PH in Fhit−/− mice. It is filed as in vivo, mouse. As for the experimental part:
Experimental PAH will be assessed based on Right Ventricular (RV) Systolic Pressure measurements through right jugular vein catheterization and RV hypertrophy was assessed by the weight ratio of the RV to left ventricle+septum. Vessel loss and muscularization of lung vessels will be visualized by MOVAT pentachrome stain or IF staining with αSMA and avWF antibodies.
Fhit homozygous (−/−) mice were obtained from Kay F. Huebner (Ohio State University). Bmpr2+/− mice were a gift from Marlene Rabinovitch (Stanford University). Adult wildtype C57BL/6 mice, Bmpr2+/− or Fhit−/− mice at 8-10 weeks of age were housed in chronic hypoxia (10% O2) for 3 weeks, followed by a recovery period of 4 weeks in normoxia (21% O2). […] Development of experimental PH was induced in adult Sprague Dawley rats (8 weeks old, 180-220 g) through a subcutaneous dose of the VEGFR-2 inhibitor SUGEN5416 (20 mg/kg body weight), followed by exposure to chronic hypoxia (10% O2) for 3 weeks and normoxia for 5 weeks (21% O2), as previously described(12). […] Right Ventricular (RV) Systolic Pressure was measured through right jugular vein catheterization, and RV hypertrophy (RVH) was assessed by the weight ratio of the RV to left ventricle and septum (LV+S).
FIGS. 23B-23C, ΔΔCt analysis of mRNA expression in lung tissue.

The subject of series [2] is PAEC. The series is described as follows: Trypan Blue viability assay and total cell counts. It is filed as cell-based, human.
For a further series, the system named is Caspase 3/7 in PAECs. The series can be described thus: Caspase-Glo 3/7 apoptosis assay. It is filed as cell-based, human. As for the experimental part: (§1) Assays were conducted according to the manufacturer's instructions and as previously described(E1,E9).
Quantified area=% of cells that show nuclear γH2AX staining quantified with automated software (white nuclei=positive stain, grey nuclei=background stain). […] FIGS. 9G-9H, MTT proliferation assay in Enzastaurin-treated (0.5-50 M) in PASMC and PAEC, respectively. (n=3). FIGS. 9I-9J, MTT proliferation assay in Enzastaurin-treated (5 M) siFHIT and siBMPR2 transfected PASMC compared to Ntsi control, respectively. (n=3).
(§2) As a cumulative viability measurement, we quantified caspase3/7 activity, using the luminescent Caspase-Glo®3/7 assay(36) and DNA damage, using histone H2AX phosphorylation by immunofluorescence and quantification as nuclear area staining (%) by confocal microscopy(34, 35, 37). […] PAEC proliferation was assessed via an MTT proliferation assay and hemocytometer cell counts(36).

The subject of series [3] is PAEC. The series is described as follows: MTT proliferation assay in PAEC. It is filed as cell-based, human. Particulars: Enzastaurin 0.5-50 M as printed. As for the experimental part: as §1
Quantified area=% of cells that show nuclear γH2AX staining quantified with automated software (white nuclei=positive stain, grey nuclei=background stain). […] (n=3). […] (n=3).
as §2
For orientation: Tetrazolium dyes change colour on reduction, which living cells bring about.

[4] abbreviates: C57BL/6 FHIT−/− mice, 3 weeks hypoxia, 5 mg/kg daily by osmotic pump, method in future tense.
[5] abbreviates: Fhit−/− mice, hypoxia, 5 mg/kg/day via mini osmotic pump.

Take `Cn1cc(C2=C(c3cn(C4CCN(Cc5ccccn5)CC4)c4ccccc34)C(=O)NC2=O)c2ccccc21` [Enzastaurin, 3-(1-methyl-1H-indol-3-yl)-4-[1-[1-(pyridin-2-ylmethyl)piperidin-4-yl]-1H-indol-3-yl]-1H-pyrrole-2,5-dione]: in series [1] (setting [4]), the “FHIT levels (FIG. 5C)” value is “fails to increase FHIT levels”, the “PKC levels (FIG. 5C)” value was “effectively downregulating PKC levels” and the “Pulmonary hypertension development (FIG. 5C)” value is on record as “does not protect from pulmonary hypertension development”. Further, in series [1] (setting [5]), the “BMPR2 expression in whole lung tissue” value was “increased”, the “FHIT mRNA expression in lung tissue” value is on record as “unmeasurably low”, the “ID1 expression in whole lung tissue” value is on record as “increased” and the PH result is “improved PH”. The RVSP entry in series [1] (male FHIT−/− mice, 3 weeks hypoxia, 5 mg/kg by mini-osmotic pump, vs Sham control) is given as “protects from increased RVSP”. Further, the Total cell counts entry with PAEC [2] (Enzastaurin up to 50 μM) is recorded as “increased cell numbers”. In addition, in the series on PAEC [2] (varying concentrations of Enzastaurin), the “Cell toxicity by Trypan Blue viability assay” value is reported as “did not elicit cell toxicity”. Further, the “Caspase 3/7-mediated apoptosis in synchronised PAECs” value in the series with Caspase 3/7 in PAECs (24 hours, 5 μM or 15 μM Enzastaurin, 5 μM Ly333531 hydrochloride) was “decreases”. Besides, in the series with Caspase 3/7 in PAECs (t=48 h post-transfection, 15 μM Enzastaurin), the “Caspase 3/7 luminescence (apoptosis) in siBMPR2 and siFHIT PAEC” value is reported as “decreased”. The “PAEC proliferation (MTT)” value in the series on PAEC [3] is reported as “no increase in PAEC proliferation was detected”.
